Measured values reported in patent US20040092456A1, “Methods for identifying glucose uptake modulators” (priority 2002, published 2004).

How the values were obtained:
Format in all cases: cell-based, mouse
[1] = tested on: skeletal muscle; assay: Contractile function (tetanic force, relaxation) during drug exposure
Description: To ensure that this inhibition was not caused by a generalized, unspecific inhibitory effect of the drug, contractile function was tested during exposure to 2-APB.

[2] = tested on: soleus muscles; assay: Insulin-mediated 2-deoxyglucose (2-DG) uptake in isolated soleus muscles; details: insulin 10 milliunits ml^−1
Description: (§1) Adult male mice (NMRI strain) were housed at room temperature and fed ad libitum. Animals were killed by rapid neck disarticulation and muscles removed. Extensor digitorum longus (EDL; mainly fast-twitch fibers)) and soleus (mainly slow-twitch fibers) muscles were used for measurements of 2-deoxyglucose (2-DG) uptake. Flexor digitorum brevis (FDB, mainly fast-twitch fibers) muscles were used in single fiber experiments. All procedures were approved by the local ethics committee.
(§2) 2-DG uptake was measured essentially as described elsewhere (Shashkin et al. (1995) J Biol Chem 270:25613-25618; Le Marchand-Brustel et al. (1979) J Clin Invest 64:1505-1515). Briefly, muscles were incubated at 35° C. in Krebs bicarbonate buffer containing 2 mmol 1^−1 pyruvate (no glucose) ±an antagonist of SMCE, either 2-APB, a relatively specific inhibitor of SMCE that appears to act directly on SMCE channels (Braun et al. (2001) J Biol Chem 276:1063-1070; Broad et al. (2001) J Biol Chem 276:15945-15952), or MDL, another inhibitor of SMCE with different modes of action as compared to 2-APB (van Rossum et al. (2000) J Biol Chem 275:28562-28568). In other experiments muscles were incubated in 2,5-di(tert-butyl)-1,4-benzohydroquinone (TBQ), an inhibitor of SR Ca^2+ uptake (Westerblad et al. (1994) J Physiol 474:291-301). In some experiments insulin was added (10 milliunits ml^−1) after the initial 30 min incubation period. After an additional 30 min, 2-DG (1 mmol 1^−1; 1 mCi mmol^−1) and inulin (0.2 μCi per ml medium) were added. Muscles were blotted and frozen in liquid nitrogen 20 min after addition of 2-DG. Muscles were then weighed, digested in NaOH at 70° C., cooled and centrifuged, and aliquots of the supernatants were added to scintillation cocktail and counted for ^3H (2-DG) and ^14C (inulin).

[3] = tested on: soleus muscles; assay: Basal 2-DG uptake (no insulin) in isolated soleus muscles; details: for Basal rate of 2-DG uptake, Soleus: MDL 300 μmol 1^−1, TBQ 500 nmol 1^−1, mean ± SEM (n)
Description: as §1, §2

[4] = tested on: EDL muscles; assay: Basal 2-DG uptake (no insulin) in isolated EDL muscles; details: for Basal rate of 2-DG uptake, EDL: 2-APB 0.1 mmol 1^−1, MDL 300 μmol 1^−1, TBQ 500 nmol 1^−1, mean ± SEM (n)
Description: as §1, §2

[5] = tested on: EDL muscles; assay: Insulin-mediated 2-deoxyglucose (2-DG) uptake in isolated EDL muscles; details: insulin 10 milliunits ml^−1
Description: as §1, §2
In some experiments on EDL muscles, 2-DG glucose uptake was measured after 2-APB removal in the continued presence of insulin. After the initial 30 min incubation period, insulin (10 milliunits ml^−1) was added and remained in the solution for the rest of the experiment. After an additional 30 min, 2-APB (100 μM) was added. […] Control muscles were treated in the same way except that 2-APB was never added.

[6] = tested on: store-mediated Ca^2+ entry (SMCE); assay: Rate of Mn2+ quenching of fura-2 fluorescence in single FDB muscle fibers (indirect measure of SMCE)
Description: as §1
(§3) Experiments on single FDB muscle fibers were performed at 24° C. The isolated fiber was mounted in a stimulation chamber and continuously superfused by standard Tyrode solution (Lännergren et al. (1987) J Physiol 390:285-293). The free myoplasmic [Ca^2+] ([Ca^2+]i) was measured with the fluorescent Ca^2+ indicator indo-1 (Andrade et al. (1998) J Physiol 509:565-575). An indirect measure of SMCE was obtained by measuring the rate of Mn^2+ entry and quenching of the fluorescence intensity of fura-2 (Hopfet al. (1996) J Biol Chem 271:22358-22367). MnCl2 (100 μmol 1^−1) was added to the bath solution and the fura-2 injected muscle fiber was excited at 360±5 nm (the isosbestic wavelength of fiira-2 under our experimental conditions) while measuring the fluorescence light emitted at 495±5 nm. The rate of Mn^2+ quenching was measured during periods where the rate of decrease of the fluorescent light was stable, i.e. ignoring transient changes induced by changes of the bath solution. Measurements were not performed until 2 min after application of insulin, thus allowing time for insulin to act.

[7] = tested on: single FDB muscle fibers; assay: Free myoplasmic [Ca2+]i measured with indo-1 in single FDB muscle fibers; details: global [Ca^2+]i, 75±13 before, n=4
Description: as §1
as §3, with “The isolated fiber was mounted in a stimulation chamber and continuously superfused by standard Tyrode solution (Lännergren et al. (1987) J Physiol 390:285-293). The free myoplasmic [Ca^2+]” left out, “Measurements were not performed until 2 min after application of insulin, thus allowing time for insulin to act.” left out

| Compound | Reversibility of the force reduction on washout ([1]; 100 μmol 1^−1 MDL) | Reduction of tetanic force ([1]; 100 μmol 1^−1 MDL, 30 min of exposure, n=4) [%] | Effect on insulin-mediated 2-DG uptake, soleus (in words) [2] | Effect on basal 2-DG uptake, soleus (in words) [3] | Basal rate of 2-DG uptake, Soleus [3] | Effect on basal 2-DG uptake, EDL (in words) [4] | Basal rate of 2-DG uptake, EDL [4] | Effect on insulin-mediated 2-DG uptake, EDL (in words) [5] | Increase of tetanic force ([1]; 2-APB 100 μmol 1^−1, 30 min (n=5), TBQ 500 nmol 1^−1 (n=4)) [%] | Relaxation speed (in words) ([1]; 2-APB 100 μmol 1^−1, 30 min, TBQ 500 nmol 1^−1) | Insulin-mediated 2-DG uptake, soleus ([2]; 100 nmol 1^−1 TBQ, n=6) [μmol 1^−1 min^−1] | Insulin-mediated 2-DG uptake, soleus ([2]; 500 nmol 1^−1 TBQ, n=4) [μmol 1^−1 min^−1] | Insulin-mediated 2-DG uptake, EDL ([5]; 100 nmol 1^−1 TBQ, n=6) [μmol 1^−1 min^−1] | Insulin-mediated 2-DG uptake, EDL ([5]; 500 nmol 1^−1 TBQ, n=4) [μmol 1^−1 min^−1] | Increase in the rate of Mn^2+ quenching on addition of insulin ([6]; 0 mmol 1^−1 glucose, n=5) | Insulin-induced change of the rate of Mn^2+ quenching (in words) ([6]; 5.5 mmol 1^−1 glucose, mean data, n=6) | Recovery of the 2-APB-induced decrease of quenching rate by insulin ([6]; insulin 10 mU ml^−1 in continued presence of 2-APB 100 μmol 1^−1) | [Ca^2+]i after application of insulin [7] [nmol 1^−1] |
| --- | --- | --- | --- | --- | --- | --- | --- | --- | --- | --- | --- | --- | --- | --- | --- | --- | --- | --- |
| c1ccc([C@H]2CCC[C@H]2NC2=NCCCCCCCCCCC2)cc1 (relative stereo) [MDL, cis-N-(2-phenylcyclopentyl)azacyclotridec-1-en-2-amine] | not reversed on washout | 22±2 | decreased insulin-mediated 2-DG uptake in a dose-dependent manner | not significantly affected | 42 ± 4 (4) μmol 1^−1 min^−1 | not significantly affected | 42 ± 3 (4) μmol 1^−1 min^−1 | decreased insulin-mediated 2-DG uptake in a dose-dependent manner |  |  |  |  |  |  |  |  |  |  |
| CC(C)(C)c1cc(O)c(C(C)(C)C)cc1O [TBQ, 2,5-di(tert-butyl)-1,4-benzohydroquinone] |  |  | no effect | no significant effect | 63 ± 5 (4) μmol 1^−1 min^−1 | no significant effect | 37 ± 6 (4) μmol 1^−1 min^−1 | no effect | 4±2 | slight slowing of relaxation | 150±7 | 179±8 | 93±5 | 103±4 |  |  |  |  |
| insulin |  |  |  |  |  |  |  |  |  |  |  |  |  |  | about 10% | no significant insulin-induced change | about half | 74±13 |
